Experimental findings from ChEMBL document CHEMBL3046887, “Microwave-irradiated synthesis and antimicrobial activity of 2-phenyl-7-substitutedalkyl/arylaminoquinoline-4-carboxylic acid derivatives” (2010) are described below.

Active and inactive are the calls of the source. The calls are words filed in the database; no cut-off is given here.

The test system of one assay is Enterococcus faecalis. Briefly: Antibacterial activity against Enterococcus faecalis MTCC 439 at 10 ug/well after 24 hr by agar well diffusion method.
Conditions: not given
Type of assay: functional. (A growth-free zone around the sample is the usual read-out of agar diffusion tests.)
GENTAMICIN had an inhibition zone (IZ) of 18 mm.

The assay is the same for the next values; noted with them: MTCC 439, 24 h, read-out: DIZ.
Take `COc1ccc(Nc2ccc3c(C(=O)O)cc(-c4ccccc4)nc3c2)cc1`: the zone of inhibition at 10 µg/disc came to 8 mm.
On to `CC1COc2c(N3CCN(C)CC3)c(F)cc3c(=O)c(C(=O)O)cn1c23` (configuration not stated) [OFLOXACIN], for which the zone of inhibition at 10 µg/disc worked out at 16 mm.
On the same count and under the same terms, the value for `O=C(O)c1cc(-c2ccccc2)nc2cc(Nc3ccccc3)ccc12` was 9 mm; that for `O=C(O)c1cc(-c2ccccc2)nc2cc(Nc3ccc([N+](=O)[O-])cc3)ccc12` was 3 mm; that for `Cc1ccc(Nc2ccc3c(C(=O)O)cc(-c4ccccc4)nc3c2)cc1` was 9 mm.
In the case of `NS(=O)(=O)c1ccc(Nc2ccc3c(C(=O)O)cc(-c4ccccc4)nc3c2)cc1`, the zone of inhibition at 10 µg/disc was 5 mm.

The test system of a further assay is Staphylococcus aureus. Description: Antibacterial activity against Staphylococcus aureus MTCC 737 at 10 ug/well after 24 hr by agar well diffusion method.
Conditions: not given
The assay is classed as functional.
In turn, GENTAMICIN came in with an inhibition zone (IZ) of 16 mm.

The assay is the same for the next values; noted with them: MTCC 737, 24 h, read-out: DIZ.
As to `COc1ccc(Nc2ccc3c(C(=O)O)cc(-c4ccccc4)nc3c2)cc1`, the zone of inhibition at 10 µg/disc came out at 2 mm.
The same measure, in the same setting: with `CC1COc2c(N3CCN(C)CC3)c(F)cc3c(=O)c(C(=O)O)cn1c23` (configuration not stated) [OFLOXACIN] the figure was 16 mm; with `O=C(O)c1cc(-c2ccccc2)nc2cc(Nc3ccccc3)ccc12`, 8 mm; with `O=C(O)c1cc(-c2ccccc2)nc2cc(Nc3ccc([N+](=O)[O-])cc3)ccc12`, 7 mm.
For `Cc1ccc(Nc2ccc3c(C(=O)O)cc(-c4ccccc4)nc3c2)cc1`, the zone of inhibition at 10 µg/disc is 5 mm.
Still for that read-out and setting: with `NS(=O)(=O)c1ccc(Nc2ccc3c(C(=O)O)cc(-c4ccccc4)nc3c2)cc1` the figure was 9 mm.

The subject of the next assay is Streptococcus pyogenes. Description: Antibacterial activity against Streptococcus pyogenes MTCC 442 after 24 hr by agar dilution method. The assay is classed as functional.
Conditions: not given
As to `O=C(O)c1cc(-c2ccccc2)nc2cc(Nc3ccccc3)ccc12`, the MIC stood at 4 µg.

The next assay has as its system Klebsiella pneumoniae. Description: Antibacterial activity against Klebsiella pneumoniae MTCC 109 at 10 ug/well after 24 hr by agar well diffusion method. The assay is classed as functional.
Conditions: not given
For the molecule `O=C(O)c1cc(-c2ccccc2)nc2cc(Nc3ccc([N+](=O)[O-])cc3)ccc12`, the “diameter of the inhibition zone (DIZ)” value is “inactive”.
On the same count and under the same terms, with `NS(=O)(=O)c1ccc(Nc2ccc3c(C(=O)O)cc(-c4ccccc4)nc3c2)cc1` the entry was “inactive”.
GENTAMICIN: the inhibition zone (IZ) was 16 mm.

The assay is the same for the next values; noted with them: MTCC 109, 24 h, read-out: DIZ.
Turning to `COc1ccc(Nc2ccc3c(C(=O)O)cc(-c4ccccc4)nc3c2)cc1`, the zone of inhibition at 10 µg/disc worked out at 3 mm.
Same read-out and setting: with `CC1COc2c(N3CCN(C)CC3)c(F)cc3c(=O)c(C(=O)O)cn1c23` (configuration not stated) [OFLOXACIN] the figure was 19 mm; with `O=C(O)c1cc(-c2ccccc2)nc2cc(Nc3ccccc3)ccc12`, 5 mm; with `Cc1ccc(Nc2ccc3c(C(=O)O)cc(-c4ccccc4)nc3c2)cc1`, 3 mm.

For the next assay, the system named is Bacillus cereus. Description: Antibacterial activity against Bacillus cereus MTCC 430 at 10 ug/well after 24 hr by agar well diffusion method. Type of assay: functional.
Conditions: not given
On to GENTAMICIN, for which the inhibition zone (IZ) worked out at 17 mm.

The assay is the same for the next values; noted with them: MTCC 430, 24 h, read-out: DIZ.
Turning to `COc1ccc(Nc2ccc3c(C(=O)O)cc(-c4ccccc4)nc3c2)cc1`, the zone of inhibition at 10 µg/disc turned out to be 4 mm.
The same measure, in the same setting: the value for `CC1COc2c(N3CCN(C)CC3)c(F)cc3c(=O)c(C(=O)O)cn1c23` (configuration not stated) [OFLOXACIN] was 16 mm; that for `O=C(O)c1cc(-c2ccccc2)nc2cc(Nc3ccccc3)ccc12` was 10 mm; that for `O=C(O)c1cc(-c2ccccc2)nc2cc(Nc3ccc([N+](=O)[O-])cc3)ccc12` was 9 mm.
On the same count and under the same terms, with `Cc1ccc(Nc2ccc3c(C(=O)O)cc(-c4ccccc4)nc3c2)cc1` the figure was 6 mm; with `NS(=O)(=O)c1ccc(Nc2ccc3c(C(=O)O)cc(-c4ccccc4)nc3c2)cc1`, 5 mm.

In a further assay the test system is Pseudomonas oleovorans. Description: Antibacterial activity against Pseudomonas oleovorans MTCC 617 at 10 ug/well after 24 hr by agar well diffusion method. The assay is classed as functional. The note with it: Ectopseudomonas oleovorans.
For the molecule GENTAMICIN, the inhibition zone (IZ) came out at 19 mm.

The assay is the same for the next values; noted with them: Ectopseudomonas oleovorans, MTCC 617, 24 h; read-out: DIZ.
For `COc1ccc(Nc2ccc3c(C(=O)O)cc(-c4ccccc4)nc3c2)cc1`, the zone of inhibition at 10 µg/disc was 5 mm.
For `CC1COc2c(N3CCN(C)CC3)c(F)cc3c(=O)c(C(=O)O)cn1c23` (configuration not stated) [OFLOXACIN], the zone of inhibition at 10 µg/disc is 17 mm.
The same measure, in the same setting: the value for `O=C(O)c1cc(-c2ccccc2)nc2cc(Nc3ccccc3)ccc12` was 12 mm; that for `O=C(O)c1cc(-c2ccccc2)nc2cc(Nc3ccc([N+](=O)[O-])cc3)ccc12` was 8 mm; that for `Cc1ccc(Nc2ccc3c(C(=O)O)cc(-c4ccccc4)nc3c2)cc1` was 8 mm.
On to `NS(=O)(=O)c1ccc(Nc2ccc3c(C(=O)O)cc(-c4ccccc4)nc3c2)cc1`, for which the zone of inhibition at 10 µg/disc turned out to be 11 mm.

In another assay the test system is Escherichia coli. Briefly: Antibacterial activity against Escherichia coli MTCC 1652 at 10 ug/well after 24 hr by agar well diffusion method.
Conditions: not given
The assay is classed as functional.
The molecule GENTAMICIN registered an inhibition zone (IZ) of 16 mm.

Still in this assay, the particulars now being: MTCC 1652, 24 h, read-out: DIZ.
Take `COc1ccc(Nc2ccc3c(C(=O)O)cc(-c4ccccc4)nc3c2)cc1`: the zone of inhibition at 10 µg/disc was determined as 3 mm.
For `CC1COc2c(N3CCN(C)CC3)c(F)cc3c(=O)c(C(=O)O)cn1c23` (configuration not stated) [OFLOXACIN], the zone of inhibition at 10 µg/disc is 17 mm.
On to `O=C(O)c1cc(-c2ccccc2)nc2cc(Nc3ccccc3)ccc12`, for which the zone of inhibition at 10 µg/disc turned out to be 10 mm.
On the same count and under the same terms, with `O=C(O)c1cc(-c2ccccc2)nc2cc(Nc3ccc([N+](=O)[O-])cc3)ccc12` the figure was 12 mm; with `Cc1ccc(Nc2ccc3c(C(=O)O)cc(-c4ccccc4)nc3c2)cc1`, 8 mm.
Still for that read-out and setting: with `NS(=O)(=O)c1ccc(Nc2ccc3c(C(=O)O)cc(-c4ccccc4)nc3c2)cc1` the figure was 8 mm.

A further assay relates to Pseudomonas aeruginosa. Briefly: Antibacterial activity against Pseudomonas aeruginosa MTCC 741 after 24 hr by agar dilution method. The assay is classed as functional.
Conditions: not given
In general terms: In agar dilution the substance is mixed into plates at graded concentrations.
`O=C(O)c1cc(-c2ccccc2)nc2cc(Nc3ccccc3)ccc12` displayed an MIC of 9 µg.

The subject of another assay is Bacillus subtilis. Description: Antibacterial activity against Bacillus subtilis MTCC 2397 at 10 ug/well after 24 hr by agar well diffusion method. The assay is classed as functional.
Conditions: not given
In turn, GENTAMICIN displayed an inhibition zone (IZ) of 19 mm.

The assay is the same for the next values; noted with them: MTCC 2397, 24 h, read-out: DIZ.
Turning to `COc1ccc(Nc2ccc3c(C(=O)O)cc(-c4ccccc4)nc3c2)cc1`, the zone of inhibition at 10 µg/disc was 4 mm.
In the case of `CC1COc2c(N3CCN(C)CC3)c(F)cc3c(=O)c(C(=O)O)cn1c23` (configuration not stated) [OFLOXACIN], the zone of inhibition at 10 µg/disc stood at 17 mm.
Same read-out and setting: with `O=C(O)c1cc(-c2ccccc2)nc2cc(Nc3ccccc3)ccc12` the figure was 9 mm; with `O=C(O)c1cc(-c2ccccc2)nc2cc(Nc3ccc([N+](=O)[O-])cc3)ccc12`, 5 mm.
Still for that read-out and setting: with `Cc1ccc(Nc2ccc3c(C(=O)O)cc(-c4ccccc4)nc3c2)cc1` the figure was 6 mm.
On the same count and under the same terms, with `NS(=O)(=O)c1ccc(Nc2ccc3c(C(=O)O)cc(-c4ccccc4)nc3c2)cc1` the figure was 5 mm.

The test system of another assay is Pseudomonas aeruginosa. Briefly: Antibacterial activity against Pseudomonas aeruginosa MTCC 741 at 10 ug/well after 24 hr by agar well diffusion method.
Conditions: not given
Type of assay: functional.
Turning to `O=C(O)c1cc(-c2ccccc2)nc2cc(Nc3ccc([N+](=O)[O-])cc3)ccc12`, the “diameter of the inhibition zone (DIZ)” value is “inactive”.
GENTAMICIN: the inhibition zone (IZ) turned out to be 19 mm.

Staying with this assay, now noted: MTCC 741, 24 h, read-out: DIZ.
Consider `COc1ccc(Nc2ccc3c(C(=O)O)cc(-c4ccccc4)nc3c2)cc1`, for which the zone of inhibition at 10 µg/disc turned out to be 8 mm.
The same measure, in the same setting: the value for `CC1COc2c(N3CCN(C)CC3)c(F)cc3c(=O)c(C(=O)O)cn1c23` (configuration not stated) [OFLOXACIN] was 16 mm; that for `O=C(O)c1cc(-c2ccccc2)nc2cc(Nc3ccccc3)ccc12` was 4 mm; that for `Cc1ccc(Nc2ccc3c(C(=O)O)cc(-c4ccccc4)nc3c2)cc1` was 3 mm.
On the same count and under the same terms, the value for `NS(=O)(=O)c1ccc(Nc2ccc3c(C(=O)O)cc(-c4ccccc4)nc3c2)cc1` was 4 mm.

A further assay relates to Streptococcus pyogenes. Description: Antibacterial activity against Streptococcus pyogenes MTCC 442 at 10 ug/well after 24 hr by agar well diffusion method.
Conditions: not given
The assay is classed as functional.
In turn, GENTAMICIN displayed an inhibition zone (IZ) of 17 mm.

Staying with this assay, now noted: MTCC 442, 24 h, read-out: DIZ.
As for `COc1ccc(Nc2ccc3c(C(=O)O)cc(-c4ccccc4)nc3c2)cc1`, the zone of inhibition at 10 µg/disc came out at 5 mm.
Same read-out and setting: the value for `CC1COc2c(N3CCN(C)CC3)c(F)cc3c(=O)c(C(=O)O)cn1c23` (configuration not stated) [OFLOXACIN] was 17 mm.
Still for that read-out and setting: with `O=C(O)c1cc(-c2ccccc2)nc2cc(Nc3ccccc3)ccc12` the figure was 7 mm.
On the same count and under the same terms, the value for `O=C(O)c1cc(-c2ccccc2)nc2cc(Nc3ccc([N+](=O)[O-])cc3)ccc12` was 2 mm; that for `Cc1ccc(Nc2ccc3c(C(=O)O)cc(-c4ccccc4)nc3c2)cc1` was 7 mm; that for `NS(=O)(=O)c1ccc(Nc2ccc3c(C(=O)O)cc(-c4ccccc4)nc3c2)cc1` was 5 mm.

The subject of the next assay is Bacillus pumilus. Description: Antibacterial activity against Bacillus pumilus MTCC 1640 at 10 ug/well after 24 hr by agar well diffusion method.
Conditions: not given
The assay is classed as functional.
Consider GENTAMICIN, for which the inhibition zone (IZ) worked out at 17 mm.

Staying with this assay, now noted: MTCC 1640, 24 h, read-out: DIZ.
For the molecule `COc1ccc(Nc2ccc3c(C(=O)O)cc(-c4ccccc4)nc3c2)cc1`, the zone of inhibition at 10 µg/disc came to 3 mm.
On the same count and under the same terms, the value for `CC1COc2c(N3CCN(C)CC3)c(F)cc3c(=O)c(C(=O)O)cn1c23` (configuration not stated) [OFLOXACIN] was 17 mm.
Same read-out and setting: the value for `O=C(O)c1cc(-c2ccccc2)nc2cc(Nc3ccccc3)ccc12` was 5 mm; that for `O=C(O)c1cc(-c2ccccc2)nc2cc(Nc3ccc([N+](=O)[O-])cc3)ccc12` was 11 mm.
With `Cc1ccc(Nc2ccc3c(C(=O)O)cc(-c4ccccc4)nc3c2)cc1`, the zone of inhibition at 10 µg/disc was 9 mm.
On the same count and under the same terms, with `NS(=O)(=O)c1ccc(Nc2ccc3c(C(=O)O)cc(-c4ccccc4)nc3c2)cc1` the figure was 2 mm.
